Design: species or system Normal adult volunteers
Settings: in vivo
Procedure: Normal adult volunteers consumed 1 g of tryptophan; with or without 10 g of glucose; blood samples were assayed for tryptophan, LNAA, and their ratio after various intervals. Control subjects received only the tryptophan. The results are shown in Table I, 1 hour after administration.

Compound: OC[C@H]1OC(O)[C@H](O)[C@@H](O)[C@@H]1O (stereo partly shown) [glucose]
- increase of the plasma tryptophan/LNAA ratio by glucose: 40-50%

From patent publication EP0088621A2, “Compositions for use in accelerating onset of sleep” (MASSACHUSETTS INSTITUTE OF TECHNOLOGY, priority 1982, dated 1983)
